Results taken from patent US20110144018A1, “AGENT FOR PROPHYLAXIS OF REFLEX SYMPATHETIC DYSTROPHY AFTER CEREBRAL APOPLEXY” (priority 2006, published 2011).

Tests used:
[1] = tested on: patients with hemiplegia attributed to cerebrovascular disease (stroke), post-stroke RSD (shoulder-hand syndrome); experiment: Test of prevention of onset of post-stroke RSD; type: in vivo, human
Excerpt: Test subjects were 33 patients with hemiplegia attributed to cerebrovascular disease (stroke) at Brunnstrom stage III or lower in either the upper limb or a finger on admission. Patients already developing RSD (shoulder-hand syndrome) on admission and patients with pain in the shoulder joint or swollen paralyzed limbs were excluded from the test. […] On the other hand, 21 test subjects were classified into a rehabilitation alone group (control group) and compared with the EL administration group. Physical therapy and therapeutic exercise, occupational therapy, and the management of the paralyzed limbs were performed thoroughly in all the cases. […] EL administration was initiated 11 to 59 days after an attack of stroke (25.8 days on average) and continued until 5 months after the attack of stroke. The same observation period was applied to the control group. The test subjects were diagnosed as developing RSD (shoulder-hand syndrome) if they had diffuse pain not localized to the shoulder joint, edema involving skin color changes, skin temperature abnormalities, and range of motion limitations, and the practice of their rehabilitation was restricted. These criteria agreed to Veldman's diagnostic criteria or diagnostic criteria, for CRPS-type 1 provided by the International Association for the Study of Pain.
Activities of daily living (ADL) were evaluated on the basis of the Barthel Index (BI) and the range of motion (ROM) of shoulder joint. The movable range of shoulder joint (also referred to as “shoulder ROM”) was regarded as restricted (Shoulder-ROM-restrictions were present.) if either abduction or flexion was restricted in measurement. The test subjects were also examined for sensory impairment, aphasia, and unilateral spatial neglect on admission.
Statistical analysis was conducted with unpaired t-test, Fisher's exact test, or Wilcoxon test, and 5% or lower significance level was regarded as being significant.

[2] = tested on: patients with hemiplegia attributed to cerebrovascular disease (stroke) who developed RSD (shoulder-hand syndrome); experiment: Test of treatment of post-stroke RSD; type: in vivo, human; details: therapeutic administration group
Protocol: EL was administered after the onset of RSD (shoulder-hand syndrome) in the same use and dose as in Example 1 to 11 patients with hemiplegia attributed to cerebrovascular disease (stroke) at Brunnstrom stage III or lower in either the upper limb or a finger on admission, who developed RSD (shoulder-hand syndrome). These patients were classified into a therapeutic administration group. On the other hand, the EL administration group of Example 1 was compared as a control (preventive administration group) with the therapeutic administration group.

[3] = tested on: RSD triggered and developed by a trauma or surgical invasion; details: clinical; cited from earlier work
[4] = EL preventive administration group, 12 cases, 20 units i.m. once a week until 5 months after attack

In the case of “1-butyric acid-7-(L-2-aminobutyric acid)-26-L-aspartic acid-27-L-valine-29-L-alanine-calcitonin [EL]”, the “Incidence of RSD converted to all patients with hemiplegia attributed to stroke in the facility” value ([1]; EL administration group) is reported as “approximately 1.3%”, the “Incidence of RSD” value ([1]; EL administration initiated within 48 days after stroke) is reported as 0% and the “Incidence of RSD (cases developing RSD)” value ([1]; EL preventive administration group, 1 of 12 cases) is reported as 8.3%. The “Number of test subjects developing post-stroke RSD (Developed)” value [1, 4] was 1, the “Number of test subjects not developing post-stroke RSD (Not developed)” value [1, 4] was 11 and the “No RSD, the number of persons” value ([1]; preventive administration group, at completion of administration) was 11. The “Incidence of RSD until discharge from hospital versus unadministered patient group” value ([1]; repetitive administration to stroke hemiplegia patients without RSD on admission) was “suppressed significantly and remarkably”, the “Barthel index at completion of EL administration compared with preventive administration group” value [2] was “significantly low” and the “Diffuse pain, shoulder joint pain and progression of range of motion restrictions” value [2] was “slightly suppressed”. For the same compound, the “Suppression of the symptoms of RSD” value [2] was “could not be suppressed completely in any case”.
For `O=C1O[C@H]([C@@H](O)CO)C(O)=C1O` [vitamin C], the “Effect on initial onset of RSD” value [3] is listed as “preventive effect”.
